Test [1] in a line: MC4R antagonists, dose response, counter-screen for LGR2 antagonist project, cell-based, plate reader, cherry pick (AID 743444).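 Note: transfected HEK 293 cells stimulated with alpha-MSH peptide; potency of inhibitors of the alpha-MSH evoked signal.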 Type of test: functional.
A short description of test [2]: Luminescence-based counterscreen assay for KLF5 inhibitors: dose response cell-based high throughput screening assay to identify cytotoxic compounds using the IEC-6 intestinal epithelial cell line. [Related pubchem assays: 1700 (Primary screen.), 1834 (Confirmation screen.), 1858 (Summary AID.), 1905 (Counterscreen.)]. Type of test: functional. On the technique in general: A counterscreen serves to expose hits that act by an unwanted route or on another target.

Test [3] concerns the target T1, Sentrin-specific protease 8 (Homo sapiens, UniProt Q96LD8).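 Note: luminescence read-out of SENP8 inhibition, dose-response confirmation following an ultra-high-throughput screen.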
T1 sequence (Q96LD8 whole entry): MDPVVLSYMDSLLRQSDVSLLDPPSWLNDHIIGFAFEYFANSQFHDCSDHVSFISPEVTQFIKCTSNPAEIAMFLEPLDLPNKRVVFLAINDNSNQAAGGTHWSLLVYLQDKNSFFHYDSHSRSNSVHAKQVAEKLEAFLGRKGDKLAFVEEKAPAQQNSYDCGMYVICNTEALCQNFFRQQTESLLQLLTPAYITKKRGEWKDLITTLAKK
Type of test: functional.

In test [4] the target is T2, Sentrin-specific protease 6 (Homo sapiens, UniProt Q9GZR1).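 Note: Luminescence-based dose-response confirmatory assay of SENP6 inhibition, following up an ultra-high-throughput screen.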
T2 sequence (Q9GZR1 whole entry): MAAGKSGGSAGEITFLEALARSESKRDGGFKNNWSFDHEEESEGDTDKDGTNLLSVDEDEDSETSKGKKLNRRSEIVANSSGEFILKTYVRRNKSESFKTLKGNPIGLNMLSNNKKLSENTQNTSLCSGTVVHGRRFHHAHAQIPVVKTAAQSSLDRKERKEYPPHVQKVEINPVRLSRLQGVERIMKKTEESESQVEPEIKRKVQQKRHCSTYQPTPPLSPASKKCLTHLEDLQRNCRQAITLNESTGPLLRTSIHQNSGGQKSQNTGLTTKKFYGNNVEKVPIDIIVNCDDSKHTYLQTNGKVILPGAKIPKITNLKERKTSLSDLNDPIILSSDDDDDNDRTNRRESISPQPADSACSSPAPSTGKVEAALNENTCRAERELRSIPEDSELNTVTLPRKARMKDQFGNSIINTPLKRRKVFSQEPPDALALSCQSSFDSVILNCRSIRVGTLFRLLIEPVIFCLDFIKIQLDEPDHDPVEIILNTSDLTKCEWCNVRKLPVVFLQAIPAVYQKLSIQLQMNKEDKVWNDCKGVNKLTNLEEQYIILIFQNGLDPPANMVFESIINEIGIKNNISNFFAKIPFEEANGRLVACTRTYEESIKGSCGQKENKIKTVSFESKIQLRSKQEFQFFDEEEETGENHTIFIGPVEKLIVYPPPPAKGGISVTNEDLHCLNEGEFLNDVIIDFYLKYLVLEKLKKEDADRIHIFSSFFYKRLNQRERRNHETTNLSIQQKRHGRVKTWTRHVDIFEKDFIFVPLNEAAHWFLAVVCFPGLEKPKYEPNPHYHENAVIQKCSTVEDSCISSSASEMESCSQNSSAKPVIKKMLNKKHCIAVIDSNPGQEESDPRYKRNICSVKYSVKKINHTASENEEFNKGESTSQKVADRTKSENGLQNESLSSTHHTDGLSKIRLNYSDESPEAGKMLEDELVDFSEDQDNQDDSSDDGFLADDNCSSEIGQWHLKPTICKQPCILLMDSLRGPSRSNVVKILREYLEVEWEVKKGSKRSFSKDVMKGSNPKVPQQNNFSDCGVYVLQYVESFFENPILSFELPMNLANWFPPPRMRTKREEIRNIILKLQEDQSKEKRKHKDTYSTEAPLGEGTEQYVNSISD
Format: functional.

Test [5] can be described thus: LGR2 antagonists, dose response, cell-based, HEK293, CRE-luciferase reporter, cherry pick, set 2 (AID 743343).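 Note: transfected cells were stimulated with diluted bursicon conditioned medium after compound addition.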 Format: functional. For orientation: Reporter assays use an easily measured gene product as a stand-in for the process of interest.
Another test has as its target T3, CAAX prenyl protease 2 (Saccharomyces cerevisiae S288c, UniProt Q03530).
T3 sequence (Q03530 whole entry): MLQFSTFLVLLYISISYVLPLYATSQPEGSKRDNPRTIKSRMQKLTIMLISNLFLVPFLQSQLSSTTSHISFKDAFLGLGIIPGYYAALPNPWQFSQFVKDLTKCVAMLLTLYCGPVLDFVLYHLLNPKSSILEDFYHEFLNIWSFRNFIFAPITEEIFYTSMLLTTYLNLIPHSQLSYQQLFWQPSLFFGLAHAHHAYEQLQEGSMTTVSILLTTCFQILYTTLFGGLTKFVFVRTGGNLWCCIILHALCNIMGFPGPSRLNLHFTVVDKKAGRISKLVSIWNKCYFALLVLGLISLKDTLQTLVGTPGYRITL
Format: biochemical.

Another test has as its target Trypsin (Sus scrofa, UniProt P00761). The test is described as follows: porcine trypsin inhibitors, dose response, selectivity assay for Rce1 protease inhibitor project, biochemical, quenched peptide fluorescence, cherry-pick (AID 488789).
The next test addresses T4, Caspase-3 (Homo sapiens, UniProt P42574).
T4 sequence (P42574 whole entry): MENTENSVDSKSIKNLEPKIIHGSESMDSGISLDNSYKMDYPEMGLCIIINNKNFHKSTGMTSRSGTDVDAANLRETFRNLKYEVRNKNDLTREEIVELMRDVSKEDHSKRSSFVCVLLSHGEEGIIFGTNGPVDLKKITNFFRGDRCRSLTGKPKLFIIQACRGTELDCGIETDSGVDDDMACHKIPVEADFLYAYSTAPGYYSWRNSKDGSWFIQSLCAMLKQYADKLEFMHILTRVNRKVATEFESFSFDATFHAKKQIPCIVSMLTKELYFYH
Format: functional.

Test [6] addresses T5, Sentrin-specific protease 7 (Homo sapiens, UniProt Q9BQF6).
T5 sequence (Q9BQF6 whole entry): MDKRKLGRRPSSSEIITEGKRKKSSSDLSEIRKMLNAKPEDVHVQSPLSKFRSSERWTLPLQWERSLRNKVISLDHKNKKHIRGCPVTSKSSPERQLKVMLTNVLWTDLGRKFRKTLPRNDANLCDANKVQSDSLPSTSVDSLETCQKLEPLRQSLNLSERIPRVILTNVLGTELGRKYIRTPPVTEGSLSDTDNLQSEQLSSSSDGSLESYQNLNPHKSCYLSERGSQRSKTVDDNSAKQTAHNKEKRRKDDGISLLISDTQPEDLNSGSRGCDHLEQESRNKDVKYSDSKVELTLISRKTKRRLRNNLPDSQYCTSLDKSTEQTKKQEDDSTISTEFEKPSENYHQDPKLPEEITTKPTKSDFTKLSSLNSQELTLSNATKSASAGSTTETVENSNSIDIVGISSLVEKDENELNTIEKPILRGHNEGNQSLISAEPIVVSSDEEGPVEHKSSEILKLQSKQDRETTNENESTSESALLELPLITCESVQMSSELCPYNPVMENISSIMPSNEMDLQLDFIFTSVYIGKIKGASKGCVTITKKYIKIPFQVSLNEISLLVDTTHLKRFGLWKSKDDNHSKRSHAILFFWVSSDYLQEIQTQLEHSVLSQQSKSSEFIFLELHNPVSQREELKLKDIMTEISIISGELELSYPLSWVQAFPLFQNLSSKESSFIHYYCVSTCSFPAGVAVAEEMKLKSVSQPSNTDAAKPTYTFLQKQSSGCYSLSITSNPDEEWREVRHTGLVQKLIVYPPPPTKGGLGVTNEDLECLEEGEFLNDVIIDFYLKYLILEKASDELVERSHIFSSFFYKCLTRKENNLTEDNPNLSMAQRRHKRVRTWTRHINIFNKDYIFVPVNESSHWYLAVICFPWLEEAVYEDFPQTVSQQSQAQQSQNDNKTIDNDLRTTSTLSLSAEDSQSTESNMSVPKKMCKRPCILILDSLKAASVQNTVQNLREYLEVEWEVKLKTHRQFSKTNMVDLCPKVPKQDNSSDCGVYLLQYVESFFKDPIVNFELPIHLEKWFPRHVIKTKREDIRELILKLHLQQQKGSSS
Type of test: functional.

The target of another test is Bcl-2-like protein 10 (Homo sapiens, UniProt Q9HD36). The test can be described thus: Biochemical TR3 FP assay of Bcl-B inhibitor potency, EC50 (AID 1243). Format: functional.
Chain of Bcl-2-like protein 10 (Q9HD36 whole entry): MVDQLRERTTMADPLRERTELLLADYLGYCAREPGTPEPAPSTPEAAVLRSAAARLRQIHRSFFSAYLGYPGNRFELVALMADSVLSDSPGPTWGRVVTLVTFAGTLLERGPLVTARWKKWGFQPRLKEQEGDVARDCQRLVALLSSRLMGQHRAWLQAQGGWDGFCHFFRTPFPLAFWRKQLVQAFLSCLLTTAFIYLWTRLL

The source made the active and inactive calls.

Chain of Trypsin (P00761 whole entry): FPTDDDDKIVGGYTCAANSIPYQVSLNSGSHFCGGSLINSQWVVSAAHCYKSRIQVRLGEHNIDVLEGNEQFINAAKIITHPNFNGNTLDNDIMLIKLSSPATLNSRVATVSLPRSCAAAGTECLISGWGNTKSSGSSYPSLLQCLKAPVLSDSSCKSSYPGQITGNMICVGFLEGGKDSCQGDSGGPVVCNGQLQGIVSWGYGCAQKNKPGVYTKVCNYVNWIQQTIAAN

One may read the AC50 as the concentration giving half of the maximal activity seen. One may read the IC50 as the concentration that inhibits the measured activity by half. Regarding `Nc1c(C(=O)Nc2cccc(C(=O)O)c2)sc2nc3c(cc12)CCCC3`, the concentration at half-maximal activity (AC50) in test [1] was 3.29 µM (active); in test [5] it was 3.06 µM (active); at CAAX prenyl protease 2, 47.8 µM (active); on Trypsin, 10.5 µM (active). Also, the IC50 in test [2] is > 39.8 µM (not active); in [3] it was 31 µM (active); in test [4], 15.1 µM (active); at Caspase-3, 71.6 µM (active); in [6], 7.47 µM (active).

As usually defined, the EC50 is the concentration at which the effect is half-maximal. `Nc1ccc(S(=O)(=O)O)c2cccc(O)c12`: the concentration giving a half-maximal response (EC50) on Bcl-2-like protein 10 is 1.05 µM (active).

The values above are taken from ChEMBL document CHEMBL1201862, “PubChem BioAssay data set” (2004).
